Assays:
[1] = Decomposition of compound in PBS buffer, pH 7.4 determined by HPLC; type: physicochemical; conditions: 37° C. under argon; for half-life: read-out: approximate half-life (in parentheses in Decomp. Time column)
Experimental: (§1) The ability of compounds to donate HNO is assessed. N2O results are reported relative to Angeli's salt. All decompositions are carried out at 37° C. under argon.

[2] = HNO production via N2O quantification (GC headspace analysis); type: physicochemical; conditions: 37° C. under argon, N2O relative to Angeli's salt; for % N2O DI: compound incubated in DI water; for % N2O pH 7.4: compound incubated in PBS buffer; for % N2O pH 10.3: compound incubated in pH 10.3 carbonate buffer
Experimental: (§2) Nitrous oxide is produced via the dimerization and dehydration of HNO, and is the most common marker for HNO production (Fukuto, J. M. et al., Chem. Res. Toxicol. 2005, 18, 790-801).
as §1

[3] = system: esterase; experiment: HNO production via N2O quantification in PBS buffer, pH 7.4 with added esterase; type: in vitro ADME; conditions: pH 7.4 with 2-4 mg added esterase, 37° C. under argon, N2O relative to Angeli's salt
Experimental: as §2, §1

O=C(ON(Cl)C(=O)c1ccccc1)c1ccccc1 [Compound 1, N-chloro-N-benzoyloxy-benzamide]
Decomp. Time (time required for complete decomposition) [1]: <3 h
% N2O DI [2]: 29%
% N2O pH 7.4 [2]: 1%

O=C(ON(Cl)C(=O)c1ccc(Cl)cc1)c1ccc(Cl)cc1 [Compound 2, N-chloro-N-(4-chlorobenzoyloxy)-4-chlorobenzamide]
Decomp. Time (time required for complete decomposition) [1]: <3 h
% N2O DI [2]: 32%
% N2O pH 7.4 [2]: 1%

CC(=O)ON(Cl)C(=O)c1ccccc1 [Compound 6, N-chloro-N-acetoxy-benzamide]
Decomp. Time (time required for complete decomposition) [1]: <3 h
% N2O pH 7.4 [2]: 2%

O=C(ON(Cl)C(=O)c1ccccc1)C(Cl)Cl [Compound 7, N-chloro-N-dichloroacetyloxy- benzamide]
Decomp. Time (time required for complete decomposition) [1]: <3 h
% N2O pH 7.4 [2]: 7%

O=C(c1ccccc1)N(Cl)OC(=O)C(F)(F)F [Compound 8, N-chloro-N-(2,2,2-trifluoroacetoxy)benzamide]
Decomp. Time (time required for complete decomposition) [1]: <3 h
% N2O pH 7.4 [2]: 2%

CC(=O)ON(Cl)C(C)=O [Compound 9, N-chloro-N-acetyloxy-acetamide]
Decomp. Time (time required for complete decomposition) [1]: <3 h
% N2O DI [2]: 80%
% N2O pH 7.4 [2]: 15%

CC(=O)ON(Cl)C(=O)OC(C)(C)C [Compound 10, N-chloro-N-acetyloxy-tert-butyl- carbamate]
Decomp. Time (time required for complete decomposition) [1]: <3 h
% N2O DI [2]: 98%
% N2O pH 7.4 [2]: 39%

CCOC(=O)ON(Cl)C(=O)OCC [Compound 11, N-chloro-ethyl-carbonoxy-ethyl- carbamate]
Decomp. Time (time required for complete decomposition) [1]: <3 h
% N2O DI [2]: 31%
% N2O pH 7.4 [2]: 12%

CC(C)(C)C(=O)ON(Cl)C(=O)C(C)(C)C [Compound 12, N-chloro-N-(trimethylacetyloxy)- trimethylacetamide]
Decomp. Time (time required for complete decomposition) [1]: <3 h
% N2O DI [2]: 37%
% N2O pH 7.4 [2]: 1%

CC(C)(C)OC(=O)N(Cl)OC(=O)c1ccc([N+](=O)[O-])cc1 [Compound 13]
Decomp. Time (time required for complete decomposition) [1]: <3 h
% N2O DI [2]: 9%

CC(=O)ON(Cl)C(=O)C(C)(C)C [Compound 14, N-chloro-N-(acetyloxy)- trimethylacetamide]
Decomp. Time (time required for complete decomposition) [1]: <3 h
% N2O DI [2]: 48%
% N2O pH 7.4 [2]: 6%

CC(=O)ON(Br)C(C)=O [Compound 15, N-bromo-N-acetyloxy-acetamide]
Decomp. Time (time required for complete decomposition) [1]: <3 h
% N2O pH 7.4 [2]: 7%

CC(=O)ON(C(C)=O)S(=O)(=O)c1ccc(Cl)cc1 [Compound 18, N-(4-chlorobenzenesulfonyl)-N-acetyloxy-acetamide]
Decomp. Time (time required for complete decomposition) [1]: <3 h
% N2O pH 7.4 [2]: 4%

CC(=O)ON(C(C)=O)S(=O)(=O)c1ccccc1Br [Compound 19, N-(2-bromobenzenesulfonyl)-N-acetyloxy-acetamide]
Decomp. Time (time required for complete decomposition) [1]: < 2 h
half-life [1]: ~20 min
% N2O pH 7.4 [2]: 35%

CC(=O)ON(C(C)=O)S(=O)(=O)c1ccccc1Cl [Compound 20, N-(2-chlorobenzenesulfonyl)-N-acetyloxy-acetamide]
Decomp. Time (time required for complete decomposition) [1]: <3 h
% N2O pH 7.4 [2]: 23%

CC(=O)ON(C(C)=O)S(=O)(=O)c1c(F)cc(F)cc1Br [Compound 21, N-(2-bromo-4,6-difluoro-benzenesulfonyl)-N-acetyloxy-acetamide]
Decomp. Time (time required for complete decomposition) [1]: <3 h
% N2O pH 7.4 [2]: 39%

CC(=O)ON(C(C)=O)S(=O)(=O)c1c(Br)cccc1Br [Compound 22, N-(2,6-dibromobenzenesulfonyl)-N-acetyloxy-acetamide]
Decomp. Time (time required for complete decomposition) [1]: < 2 h
half-life [1]: ~20 min
% N2O pH 7.4 [2]: 71%

CC(=O)ON(C(C)=O)S(=O)(=O)c1c(Cl)cccc1Cl [Compound 23, N-(2,6-dichlorobenzenesulfonyl)-N-acetyloxy-acetamide]
Decomp. Time (time required for complete decomposition) [1]: < 3 h
half-life [1]: ~40 min
% N2O esterase [3]: 57%
% N2O pH 7.4 [2]: 56%
% N2O pH 10.3 [2]: 56%

CC(=O)ON(C(C)=O)S(=O)(=O)c1c(F)cccc1F [Compound 24, N-(2,6-difluorobenzenesulfonyl)-N-acetyloxy-acetamide]
Decomp. Time (time required for complete decomposition) [1]: < 3 h
half-life [1]: ~30 min
% N2O pH 7.4 [2]: 23%

CC(=O)ON(C(C)=O)S(=O)(=O)c1ccccc1[N+](=O)[O-] [Compound 25, N-(2-nitrobenzenesulfonyl)-N-acetyloxy-acetamide]
Decomp. Time (time required for complete decomposition) [1]: <3 h
% N2O pH 7.4 [2]: 13%

CC(=O)ON(C(C)=O)S(=O)(=O)CCl [Compound 26, N-(chloromethylsulfonyl)-N- acetyloxy-acetamide]
Decomp. Time (time required for complete decomposition) [1]: <3 h
% N2O pH 7.4 [2]: 13%

CCOC(=O)N(OC(C)=O)S(=O)(=O)c1c(Cl)cccc1Cl [Compound 27]
Decomp. Time (time required for complete decomposition) [1]: <3 h
% N2O pH 7.4 [2]: 57%

CC(=O)ON(C(=O)c1ccccc1)S(=O)(=O)c1c(Cl)cccc1Cl [Compound 28, N-(2,6-dichlorobenzenesulfonyl)-N-acetyloxy-benzamide]
Decomp. Time (time required for complete decomposition) [1]: <3 h
% N2O pH 7.4 [2]: 17%
% N2O pH 10.3 [2]: 44%

CC(=O)ON(C(=O)OCc1ccccc1)S(=O)(=O)c1c(Cl)cccc1Cl [Compound 29, N-(2,6-dichlorobenzenesulfonyl)-N-acetyloxy-benzyl-carbamate]
Decomp. Time (time required for complete decomposition) [1]: <3 h
% N2O esterase [3]: 83%
% N2O pH 7.4 [2]: 21%
% N2O pH 10.3 [2]: 52%

CC(=O)ON(C(=O)C(Cl)Cl)S(=O)(=O)c1c(Cl)cccc1Cl [Compound 30, N-(2,6-dichlorobenzenesulfonyl)-N-acetyloxy-dichloroacetamide]
Decomp. Time (time required for complete decomposition) [1]: <3 h
% N2O pH 7.4 [2]: 3%
% N2O pH 10.3 [2]: 8%

CC(=O)ON(C(=O)C(C)(C)C)S(=O)(=O)c1cc(Cl)ccc1Cl [Compound 31, N-(2,5-dichlorobenzenesulfonyl)-N-acetyloxy-trimethylacetamide]
Decomp. Time (time required for complete decomposition) [1]: <20 h
% N2O pH 7.4 [2]: 5%

CC(=O)ON(C(=O)C(C)(C)C)S(=O)(=O)c1ccccc1[N+](=O)[O-] [Compound 32, N-(2-nitrobenzenesulfonyl)-N-acetyloxy-trimethylacetamide]
Decomp. Time (time required for complete decomposition) [1]: >20 h
% N2O pH 7.4 [2]: 0%

CC(=O)ON(C(=O)C(C)(C)C)S(=O)(=O)c1c(Cl)cccc1Cl [Compound 33, N-(2,6-dichlorobenzenesulfonyl)-N-acetyloxy-trimethylacetamide]
Decomp. Time (time required for complete decomposition) [1]: <20 h
% N2O pH 7.4 [2]: 1%
% N2O pH 10.3 [2]: 33%

CC(=O)ON(C(=O)OC(C)(C)C)S(=O)(=O)c1ccccc1Br [Compound 36, N-(2-bromobenzenesulfonyl)-N-acetyloxy-tert-butyl-carbamate]
Decomp. Time (time required for complete decomposition) [1]: <2 h
% N2O esterase [3]: 67%
% N2O pH 7.4 [2]: 7%

CC(=O)ON(C(=O)OC(C)(C)C)S(=O)(=O)c1c(Cl)cccc1Cl [Compound 37, N-(2,6-dichlorobenzenesulfonyl)-N-acetyloxy-tert-butyl-carbamate]
Decomp. Time (time required for complete decomposition) [1]: <3 h
% N2O esterase [3]: 85%
% N2O pH 7.4 [2]: 4%

CC(=O)ON(C(=O)OC(C)(C)C)S(=O)(=O)c1c(Br)cccc1Br [Compound 38, N-(2,6-dibromobenzenesulfonyl)-N-acetyloxy-tert-butyl-carbamate]
Decomp. Time (time required for complete decomposition) [1]: <3 h
% N2O esterase [3]: 73%
% N2O pH 7.4 [2]: 3%
% N2O pH 10.3 [2]: 37%

CC(C)(C)OC(=O)N(OC(=O)c1ccc([N+](=O)[O-])cc1)S(=O)(=O)c1c(Cl)cccc1Cl [Compound 40]
Decomp. Time (time required for complete decomposition) [1]: <3 h
% N2O pH 7.4 [2]: 0%
